According to US12594267B2, “Capsid inhibitors for the treatment of HIV” (Gilead Sciences, Inc., priority 2018, dated 2026):
Read-outs that look alike come from different tables or passages of the source.

Assay: PK after subcutaneous administration of solutions in rats
Format: in vivo, Wistar Han rat
Details: Wistar Han, plasma, rat, SC 50 mg/kg; for AUC(0-t) / concentration at 28 d / concentration at 84 d / Cmax / concentration at 98 d / concentration at 168 d / concentration at 1 h / concentration at 3 h / concentration at 8 h / concentration at 24 h / concentration at 48 h / concentration at 72 h / concentration at 96 h / concentration at 168 h / concentration at 336 h / concentration at 504 h / concentration at 672 h / concentration at 840 h / concentration at 1008 h / concentration at 1344 h / concentration at 1680 h: sc, 50 mg/kg; for concentration at 28 d: read-out: C28d; for concentration at 84 d: read-out: C84d; for concentration at 98 d: read-out: C98d; for concentration at 1 h / concentration at 3 h / concentration at 8 h / concentration at 24 h / concentration at 48 h / concentration at 72 h / concentration at 96 h / concentration at 168 h / concentration at 336 h / concentration at 504 h / concentration at 672 h / concentration at 840 h / concentration at 1008 h / concentration at 1344 h / concentration at 1680 h: male, 300 mg/mL in 15% water/85% PEG 300
Protocol: Formulations containing the compound of Formula (Ia) were prepared as aqueous solutions or oral formulations and administered subcutaneously to rats, dogs, cynomolgus monkey, and/or rhesus monkey.
A solution of the compound of Formula (Ia) in 10% ethanol, 13% water, and 77% PEG 200 (400 mg/mL) was prepared. The solution was administered subcutaneously to dogs at a dose of 12 mg/kg and rats at a dose of 50 mg/kg and the pharmacokinetic (PK) profile was determined. […] In both species, plasma concentrations of the compound of Formula (Ia) were maintained above the target trough concentration of 20 nM (corresponding to an IQ of 5) for at least 84 days (12 weeks).
A solution of the free acid of the compound of Formula (Ia) in 15% water and 85% PEG 300 (300 mg/mL) was prepared. The solution was administered subcutaneously to male Wistar Han rats at a dose level of 50 mg/kg and dose volume of 0.167 mL/kg and the pharmacokinetic (PK) profile was determined.
A 300 mg/ml solution of a compound of Formula (Ia) having 9.8 w/w % water, 65.0 w/w % PEG 300, and 25.2 w/w % of the compound of Formula (Ia) was prepared. The solution was administered subcutaneously to rats at a dose of 50 mg/kg and to dogs at a dose of 12 mg/kg and the pharmacokinetic (PK) profile was determined. […] In the rat, plasma concentrations of the compound of Formula (Ia) were maintained above the target trough concentration of 20 nM for at least 168 days (24 weeks). In the dog, plasma concentrations of the compound of Formula (Ia) were maintained above the target trough concentration of 20 nM for at least 84 days (12 weeks).
(§1) A 150 mg/ml solution of a compound of Formula (Ia) having 27.92 w/w % water, 58.04 w/w % PEG 300, 13.47 w/w % of a compound of Formula (Ia), and 1.1 w/w % NaOH was prepared. The solution was administered subcutaneously to rats at a dose of 50 mg/kg and to dogs at a dose of 12 mg/kg and the pharmacokinetic (PK) profile was determined. […] In the rat, plasma concentrations of the compound of Formula (Ia) were maintained above the target trough concentration of 20 nM for at least 126 days (18 weeks). In the dog, plasma concentrations of the compound of Formula (Ia) were maintained above the target trough concentration of 20 nM for at least 56 days (8 weeks).
as §1, with “300” for “150”, “23.2” for “27.92”, “50.0” for “58.04”, “25.7” for “13.47”
A 50 mg/ml solution of a compound of Formula (Ia) having 30.07 w/w % water, 64.40 w/w % PEG 300, 4.68 w/w % of a sodium salt of the compound of Formula (Ia), and 0.85 w/w % poloxamer 188 was prepared. The solution was administered subcutaneously to rats at a dose of 50 mg/kg and to dogs at a dose of 6 mg/kg and the pharmacokinetic (PK) profile was determined. […] In the rat, plasma concentrations of the compound of Formula (Ia) were maintained above the target trough concentration of 20 nM for at least 28 days (4 weeks). In the dog, plasma concentrations of the compound of Formula (Ia) were maintained above the target trough concentration of 20 nM for at least 14 days (2 weeks).
A 75 mg/ml solution of a compound of Formula (Ia) having 29.21 w/w % water, 62.55 w/w % PEG 300, 6.97 w/w % of a sodium salt of the compound of Formula (Ia), and 1.68 w/w % poloxamer 188 was prepared. The solution was administered subcutaneously to rats at a dose of 50 mg/kg and to dogs at a dose of 6 mg/kg and the pharmacokinetic (PK) profile was determined. […]

[1] = 150 mg/mL solution (w/w %: 27.92 water, 58.04 PEG 300, 13.47 Formula (Ia), 1.1 NaOH), mean ± SD, n=3
[2] = 300 mg/mL solution (w/w %: 21.97 water, 47.05 PEG 300, 25.21 Formula (Ia), 1.08 NaOH, 4.69 poloxamer 188), mean ± SD, n=3
[3] = 400 mg/mL solution in 10% ethanol, 13% water, 77% PEG 200, mean ± SD, n=3

`CC(C)(C#Cc1ccc(-c2ccc(Cl)c3c(NS(C)(=O)=O)nn(CC(F)(F)F)c23)c([C@H](Cc2cc(F)cc(F)c2)NC(=O)Cn2nc(C(F)(F)F)c3c2C(F)(F)[C@@H]2C[C@H]32)n1)S(C)(=O)=O` [Formula (Ia), N—((S)-1-(3-(4-chloro-3-(methylsulfonamido)-1-(2,2,2-trifluoroethyl)-1H-indazol-7-yl)-6-(3-methyl-3-(methylsulfonyl)but-1-yn-1-yl)pyridin-2-yl)-2-(3,5-difluorophenyl)ethyl)-2-((3bS,4aR)-5,5-difluoro-3-(trifluoromethyl)-3b,4,4a,5-tetrahydro-1H-cyclopropa[3,4]cyclopenta[1,2-c]pyrazol-1-yl)acetamide] gave a Tmax [1] of 18.7 ± 4.04 days, an AUC(0-t) (50 mg/mL solution (w/w %: 30.07 water, 64.40 PEG 300, 4.68 sodium salt of Formula (Ia), 0.85 poloxamer 188), mean ± SD, n=3, read-out: AUC0-7d) of 156 ± 48 µM·h and a concentration at 28 d (50 mg/mL solution (w/w %: 30.07 water, 64.40 PEG 300, 4.68 sodium salt of Formula (Ia), 0.85 poloxamer 188), mean ± SD, n=3) of 82 ± 35 nM. For the same compound, the concentration at 28 d (75 mg/mL solution (w/w %: 29.21 water, 62.55 PEG 300, 6.97 sodium salt of Formula (Ia), 1.68 poloxamer 188), mean ± SD, n=3) was 32.5 ± 18.5 nM, the AUC(0-t) (100 mg/mL solution (w/w %: 28.36 water, 60.73 PEG 300, 9.23 sodium salt of Formula (Ia), 1.68 poloxamer 188), mean ± SD, n=3, read-out: AUC0-7d) was 202 ± 27 µM·h and the concentration at 28 d (100 mg/mL solution (w/w %: 28.36 water, 60.73 PEG 300, 9.23 sodium salt of Formula (Ia), 1.68 poloxamer 188), mean ± SD, n=3) was 415 ± 98 nM. It also gave a concentration at 28 d (125 mg/mL solution (w/w %: 27.51 water, 58.92 PEG 300, 11.48 sodium salt of Formula (Ia), 2.09 poloxamer 188), mean ± SD, n=3) of 27.9 ± 26.2 nM, a concentration at 84 d (150 mg/mL solution (w/w %: 26.6 water, 56.97 PEG 300, 13.39 Formula (Ia), 0.57 NaOH, 2.49 poloxamer 188), mean ± SD, n=3) of 53.3 ± 45.7 nM and a Cmax [1] of 809 ± 21 nM. The concentration at 98 d [1] was 37 ± 10.7 nM, the Cmax (300 mg/mL solution (w/w %: 9.8 water, 65.0 PEG 300, 25.2 Formula (Ia)), mean ± SD, n=3) was 318 ± 146 nM and the concentration at 168 d (300 mg/mL solution (w/w %: 9.8 water, 65.0 PEG 300, 25.2 Formula (Ia)), mean ± SD, n=3, read-out: Cd168) was 78.4 ± 13.8 nM. It also gave a Cmax [2] of 915 ± 248 nM, a concentration at 98 d [2] of 51.3 ± 36.5 nM and a Cmax (300 mg/mL solution (w/w %: 23.2 water, 50.0 PEG 300, 25.7 Formula (Ia), 1.1 NaOH), mean ± SD, n=3) of 355 ± 36 nM. For the same compound, the concentration at 168 d (300 mg/mL solution (w/w %: 23.2 water, 50.0 PEG 300, 25.7 Formula (Ia), 1.1 NaOH), mean ± SD, n=3, read-out: C168d) was 12.8 ± 3.5 nM, the AUC(0-t) (400 mg/mL solution in 10% ethanol, 13% water, 77% PEG 200, mean ± SD, n=3, read-out: AUC0-140d) was 569 ± 157 µM·h and the concentration at 84 d [3] was 162 ± 30 nM. For the same compound, the Cmax [3] was 283 ± 119 nM, the concentration at 1 h (rat #1) was 8.9 nM and the concentration at 3 h (rat #1) was 27 nM. For the same compound, the concentration at 8 h (rat #1) was 37 nM, the concentration at 24 h (rat #1) was 52.6 nM and the concentration at 48 h (rat #1) was 69.8 nM. The concentration at 72 h (rat #1) was 65.6 nM, the concentration at 96 h (rat #1) was 65.5 nM and the concentration at 168 h (rat #1) was 143 nM. It also gave a concentration at 336 h (rat #1) of 258 nM, a concentration at 504 h (rat #1) of 327 nM and a concentration at 672 h (rat #1) of 333 nM. For the same compound, the concentration at 840 h (rat #1) was 322 nM, the concentration at 1008 h (rat #1) was 300 nM and the concentration at 1344 h (rat #1) was 251 nM. For the same compound, the concentration at 1680 h (rat #1) was 202 nM, the concentration at 1 h (rat #2) was 11.4 nM and the concentration at 3 h (rat #2) was 17.3 nM. It also gave a concentration at 8 h (rat #2) of 32.8 nM, a concentration at 24 h (rat #2) of 49.2 nM and a concentration at 48 h (rat #2) of 71.1 nM. The concentration at 72 h (rat #2) was 66.9 nM, the concentration at 96 h (rat #2) was 76.8 nM and the concentration at 168 h (rat #2) was 132 nM. For the same compound, the concentration at 336 h (rat #2) was 273 nM, the concentration at 504 h (rat #2) was 267 nM and the concentration at 672 h (rat #2) was 299 nM. The concentration at 840 h (rat #2) was 316 nM, the concentration at 1008 h (rat #2) was 258 nM and the concentration at 1344 h (rat #2) was 229 nM. It also gave a concentration at 1680 h (rat #2) of 166 nM, a concentration at 1 h (rat #3) of 5.6 nM and a concentration at 3 h (rat #3) of 20.1 nM. The concentration at 8 h (rat #3) was 26.8 nM, the concentration at 24 h (rat #3) was 42.8 nM and the concentration at 48 h (rat #3) was 70.8 nM. It also gave a concentration at 72 h (rat #3) of 70.1 nM.
